Values belong to the compound of their own block, whether it stands above or below them. Bridge positions count the residues as written; N and C are the ends. Peptide text beside a SMILES is read from it.
What was measured:
[1] = biological target: T1, LFA-1 binding to ICAM-1 (JY cells) (Homo sapiens, UniProt P05362); assay: LFA-1:ICAM-1 dependent cell aggregation assay, slightly modified (360 minute incubations); type: cell-based
T1 construct: endogenous in cells; host or cells: JY cells
Procedure: (§1) JY cells were maintained in RPMI-1640 medium supplemented with 10% fetal bovine serum at 37° C. in an atmosphere containing 5% CO2 in air. The aggregation of JY cells, which is dependent on LFA-1 binding to ICAM-1, was determined as previously reported (Shannon, J. P., Silva, M. V., Brown, D. C. & Larson, R. S. (2001) Novel cyclic peptide inhibits intercellular adhesion molecule-1-mediated cell aggregation. J. Pept. Res. 58, 140-150; Larson, R. S., Brown, D. C. & Sklar, L. A.(1997) Retinoic acid induces aggregation of the acute promyelocytic leukemia cell lineNB-4 by utilization of LFA-1 and ICAM-2.Blood 90, 2747-2756; Rothlein, R. & Springer, T. A. (1986) The requirement for lymphocyte function associated antigen 1 in homotypic leukocyte adhesion stimulated by phorbol ester. J. Exp.Med. 163, 1132-1149). Briefly, JY cells were washed twice with serum-free media and resuspended at a concentration of 4×10^5 cells/mL. Cells were then preincubated with various concentrations of peptides or mAb for 15 minutes at room temperature. A 50 μL aliquot of cells was seeded in each well of a 96-well flat-bottomed microtiterplate followed by the addition of either peptide or mAb to a final volume of 100 μL. Cells were allowed to aggregate at 37° C. in humidified air containing 5% CO2. Within each well, the number of aggregates and the total number of free (single) cells were counted by inverted phase microscopy. Percent aggregation, P, was then determined as follows: P=100(1−Ff/Fi), where Ff (Fi) is the final (initial) number of free cells. Percent aggregation was then used to calculate percent inhibition, I, as follows: […], where Pi (Pc) is the percent aggregation with modulatory peptide (control). The constants for 50% inhibition (IC50) were derived from a linear fit to the percent inhibition at four concentrations (50 μm, 100 μm, 500 μm, and 1 mm) of inhibitory peptide. Each experiment was performed at least three times, with each condition performed in duplicate. The data are reported as the mean values and the SDs of each IC50.
The same general procedure was used as described in Example 1.
The functional activity of each IP02 derivative was measured in a slightly-modified version of the previously described cell aggregation assay (Shannon, J. P., Silva, M. V., Brown, D. C., & Larson, R. S. (2001). Novel cyclic peptide inhibits intercellular adhesion molecule-1-mediated cell aggregation. J. Pept. Res. 58, 140-150; Merchant, S. H., Gurule, D. M., Larson, R. S. (2003). Amelioration of ischemia-reperfusion injury with cyclic peptide blockade of ICAM-1. Am. J. Physiol. Heart Circ. 284,H1260-1268; Larson, R. S., Brown, D. C., and Sklar, L. A. (1997). Retinoic acid induces aggregation of the acute promyelocytic leukemia cell line NB-4 by utilization of LFA-1 and ICAM-2. Blood 90, 2747-2756; Rothlein, R. and Springer, T. A. (1986). The requirement for lymphocyte function-associated antigen 1 in homotypic leukocyte adhesion stimulated by phorbol ester. J. Exp. Med. 163, 1132-1149). Longer incubations (360 minutes) were used here instead of the earlier 120 minute incubations in order to increase the observed differences among peptide antagonists. Of all the amino acid substitutions, replacement of R6 with K, to produce IP02-K6, improved the IC50 the most. […] Alternatively, replacement of L2 or L3 with V (IP02-V2 and IP02-V3) or A8 with L (IP02-L8) abrogated activity, with IC50s exceeding 1,000 μM.

[2] = tested on: ischemia-reperfusion injury; conditions: in vivo; cited from earlier work
[3] = biological target: ICAM-1/LFA-1 dependent cell aggregation (Homo sapiens, UniProt P05362); conditions: literature reports; cited from earlier work
[4] = biological target: T1, LFA-1 binding to ICAM-1 (JY cells); assay: LFA-1:ICAM-1 dependent JY cell aggregation assay (2 hours); type: cell-based
Procedure: (§2) Cysteine-constrained peptides, synthesized by Biopeptide (San Diego, Calif., USA), were isolated using high-performance liquid chromatography, and their correct mass was confirmed by mass spectrometry. The peptides were dissolved in 5% dimethylsulfoxide in phosphate-buffered saline (PBS) at concentrations of 10 mm and stored at −80° C. until use. The mAb directed against LFA-1 (TS1/18) was purified from a hybridoma line ([…], Manassas, Va.) as described previously (Oj, V. T. & Herzenberg, T. (1980) Immunoglobulin-producing hybrid celllines. In Selected Methods in Cellular Immunology (Mishell, B. B. & Shiigi, S. M.,eds), H. H. Freeman, New York; Larson, R. S., Brown, D. C. & Sklar, L. A.(1997) Retinoic acid induces aggregation of the acute promyelocytic leukemia cell lineNB-4 by utilization of LFA-1 and ICAM-2.Blood 90, 2747-2756; Rothlein, R. & Springer, T. A. (1986) The requirement for lymphocyte function associated antigen 1 in homotypic leukocyte adhesion stimulated by phorbol ester. J. Exp.Med. 163, 1132-1149).
as §1

[5] = Solubility of the peptide; type: physicochemical; conditions: NS, not soluble; precluded testing; listed as R4 to A mutation
Procedure: as §2

ICAM-1/LFA-1 dependent cell aggregation, sequence (P05362 28-532): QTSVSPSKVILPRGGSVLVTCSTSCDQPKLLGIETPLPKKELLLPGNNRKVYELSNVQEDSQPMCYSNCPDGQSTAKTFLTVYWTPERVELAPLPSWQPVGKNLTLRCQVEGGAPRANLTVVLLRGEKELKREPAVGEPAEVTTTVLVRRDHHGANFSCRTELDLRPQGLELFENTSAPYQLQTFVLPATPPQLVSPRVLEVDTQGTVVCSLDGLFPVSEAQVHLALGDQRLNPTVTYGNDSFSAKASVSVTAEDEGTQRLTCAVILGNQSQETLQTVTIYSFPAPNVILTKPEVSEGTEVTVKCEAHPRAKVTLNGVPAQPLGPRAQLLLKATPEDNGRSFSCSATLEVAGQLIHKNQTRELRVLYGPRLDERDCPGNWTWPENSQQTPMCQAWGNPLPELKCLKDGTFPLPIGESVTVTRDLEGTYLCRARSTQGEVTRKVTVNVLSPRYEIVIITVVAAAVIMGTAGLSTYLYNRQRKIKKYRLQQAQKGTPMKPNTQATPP
T1 sequence (P05362 28-532): as above

IC50 fold smaller than lead peptide IP01 [1]: ~6 fold
Compound: CSCC[C@@H]1NC(=O)[C@H](CCCNC(=N)N)NC(=O)[C@H](CC(C)C)NC(=O)[C@H](CC(C)C)NC(=O)[C@@H](N)CSSC[C@@H](C(=O)O)NC(=O)[C@H](C)NC(=O)[C@H](CO)NC(=O)[C@H](CCCCN)NC1=O [IP02-K6, CLLRMKSAC] (H-CLLRMKSAC-OH; disulfide 1-9; N-terminus and C-terminus assumed)
inhibition of ischemia-reperfusion injury (in words) [2]: potent in vivo inhibitor
inhibition of ICAM-1/LFA-1 dependent cell aggregation (in words) [3]: more potent inhibitor of ICAM-1 than IP01

Compound: CC[C@H](C)[C@@H]1NC(=O)[C@H](CO)NC(=O)[C@H](CCCNC(=N)N)NC(=O)[C@H](CCSC)NC(=O)[C@H](CCCNC(=N)N)NC(=O)[C@H](CC(C)C)NC(=O)[C@H](CC(C)C)NC(=O)[C@@H](N)CSSC[C@@H](C(=O)O)NC1=O [IP01, CLLRMRSIC] (H-CLLRMRSIC-OH; disulfide 1-9; N-terminus and C-terminus assumed)
inhibition of ICAM-1/LFA-1 dependent cell aggregation (in words) [3]: potent in vitro inhibitor

bioactivity after alanine substitution (in words) ([4]; listed as I8 to alanine substitution): retained significant bioactivity
Compound: CSCC[C@@H]1NC(=O)[C@H](CCCNC(=N)N)NC(=O)[C@H](CC(C)C)NC(=O)[C@H](CC(C)C)NC(=O)[C@@H](N)CSSC[C@@H](C(=O)O)NC(=O)[C@H](C)NC(=O)[C@H](CO)NC(=O)[C@H](CCCNC(=N)N)NC1=O [IP01-A8, CLLRMRSAC] (H-CLLRMRSAC-OH; disulfide 1-9; N-terminus and C-terminus assumed)
inhibition of ICAM-1/LFA-1 dependent cell aggregation (in words) [3]: enhanced inhibition

solubility of the peptide [5]: insoluble
Compound: CC[C@H](C)[C@@H]1NC(=O)[C@H](CO)NC(=O)[C@H](CCCNC(=N)N)NC(=O)[C@H](CCSC)NC(=O)[C@H](C)NC(=O)[C@H](CC(C)C)NC(=O)[C@H](CC(C)C)NC(=O)[C@@H](N)CSSC[C@@H](C(=O)O)NC1=O [IP01-A4, CLLAMRSIC] (H-CLLAMRSIC-OH; disulfide 1-9; N-terminus and C-terminus assumed)

bioactivity after alanine substitution (in words) ([4]; listed as S7 to alanine substitution): retained significant bioactivity
Compound: CC[C@H](C)[C@@H]1NC(=O)[C@H](C)NC(=O)[C@H](CCCNC(=N)N)NC(=O)[C@H](CCSC)NC(=O)[C@H](CCCNC(=N)N)NC(=O)[C@H](CC(C)C)NC(=O)[C@H](CC(C)C)NC(=O)[C@@H](N)CSSC[C@@H](C(=O)O)NC1=O [IP01-A7, CLLRMRAIC] (H-CLLRMRAIC-OH; disulfide 1-9; N-terminus and C-terminus assumed)

IC50 [4]: > 1000 µM
Compound: CC[C@H](C)[C@@H]1NC(=O)[C@H](CO)NC(=O)[C@H](CCCNC(=N)N)NC(=O)[C@H](C)NC(=O)[C@H](CCCNC(=N)N)NC(=O)[C@H](CC(C)C)NC(=O)[C@H](CC(C)C)NC(=O)[C@@H](N)CSSC[C@@H](C(=O)O)NC1=O [IP01-A5, CLLRARSIC] (H-CLLRARSIC-OH; disulfide 1-9; N-terminus and C-terminus assumed)

— patent publication US20050048579A1, “Tertiary structures of ICAM-1/LFA-1 modulators” (priority 2003, published 2005)
